Measurements published in ChEMBL document CHEMBL5576076, “Bioisosteric heterocyclic analogues of natural bioactive flavonoids by scaffold-hopping approaches: State-of-the-art and perspectives in medicinal chemistry” (Bioorg Med Chem, 2024).
Converted amounts (≈) assume the structure as drawn.

Tests used:
DU-145 [1] = assay: Antitumor activity against human DU-145 cells xenografted in Balb/c nude mouse model assessed as tumor growth inhibition at 5 mg/kg, ip administered once daily for 16 days relative to control; type: functional; set-up: scale not given: the % may be the effect or the level left; settings: time 16 day
DU-145 [2] = assay: Antiproliferative activity against human DU-145 cells assessed as reduction in cell viability measured for 48 hrs by MTT assay; type: functional, cell-based; settings: DU-145, 48 h
MV4-11 = assay: Antiproliferative activity against human MV4-11 cells assessed as reduction in cell growth incubated for 48 hrs by MTT assay; type: functional, cell-based; settings: MV4-11, 48 h
HL-60 = assay: Antiproliferative activity against human HL-60 cells assessed as reduction in cell growth incubated for 48 hrs by MTT assay; type: functional, cell-based; settings: HL-60, 48 h
Tubulin (Homo sapiens) = Tubulin (Homo sapiens) (UniProt P68371+Q9H4B7+P0DPH7+P68366+Q13509+Q71U36+P04350+Q3ZCM7+P07437+P68363+Q9BQE3+Q6PEY2+Q13885+Q9BVA1+Q9BUF5); assay: Inhibition of [3H]-colchicine binding to tubulin (unknown origin) at 5 uM relative to control; type: protein-complex assay
MCF7 [3] = assay: cells; settings: Homo sapiens, MCF7, 72 h
[4] = Inhibition of Influenza A virus H1N1 neuraminidase
Influenza A virus = assay: Antiviral activity against Influenza A virus H1N1 infected in dog MDCK cells assessed as inhibition in virus-induced cytopathic effect incubated for 48 hrs by SRB assay; type: functional, organism-based
HepG2 [5] = assay: Cytotoxicity against human HepG2 cells assessed as reduction in cell growth incubated for 48 hrs by MTT assay; type: functional, cell-based; settings: HepG2, 48 h
KB = assay: Cytotoxicity against human KB cells assessed as reduction in cell growth incubated for 48 hrs by MTT assay; type: functional, cell-based
[6] = tested on: Human immunodeficiency virus 1; assay: Antiviral activity against HIV1 infected in H9 cells assessed as reduction in viral replication; type: functional; settings: Human immunodeficiency virus 1, H9; read-out: ED50 (the source's name)
Tubulin = assay: Inhibition of tubulin polymerization (unknown origin); type: protein-complex assay, Homo sapiens
[7] = target: Epidermal growth factor receptor (Homo sapiens, UniProt P00533); assay: Inhibition of EGFR (unknown origin)
[8] = tested on: Panel NCI-60 (60 carcinoma cell lines); assay: Antiproliferative activity against human Panel NCI-60 (60 carcinoma cell lines) assessed as reduction in cell viability; type: functional, cell-based
WiDr = assay: Antiproliferative activity against human WiDr cells assessed as reduction in cell viability incubated for 48 hrs by MTT assay; type: functional, cell-based
[9] = target: Mitogen-activated protein kinase; ERK1/ERK2 (Homo sapiens, UniProt P27361+P28482); assay: Inhibition of RAF1- induced activation of MEK (unknown origin) signalling pathway assessed as reduction in ERK1/2 phosphorylation; type: protein assay
HT-1080 = assay: cells; settings: Homo sapiens, HT-1080, 48 h
Description: Antiproliferative activity against human HT-1080 cells assessed as reduction in cell viability incubated for 48 hrs by MTT assay

Cytochrome P450 1A2 = Cytochrome P450 1A2 (Homo sapiens, UniProt P05177); assay: Inhibition of CYP1A2 (unknown origin); type: ADME
ARO = assay: Antiproliferative activity against human ARO cells assessed as reduction in cell growth incubated for 48 hrs by MTT assay; type: functional, cell-based
OE19 = assay: Antiproliferative activity against human OE19 cells assessed as reduction in cell growth incubated for 72 hrs by MTT assay; type: functional, cell-based; settings: OE19, 72 h
HepG2 [10] = assay: Antiproliferative activity against human HepG2 cells assessed as reduction in cell viability incubated for 72 hrs by MTT assay; type: functional, cell-based; settings: HepG2, 72 h
MCF7 [11] = assay: Antiproliferative activity against human MCF7 cells assessed as reduction in cell growth incubated for 48 hrs by MTT assay; type: functional, cell-based; settings: MCF7, 48 h
OVCAR-3 = assay: Antiproliferative activity against human OVCAR-3 cells assessed as reduction in cell viability incubated for 72 hrs by MTT assay; type: functional, cell-based; settings: OVCAR-3, 72 h
A549 [12] = assay: Antiproliferative activity against human A549 cells assessed as reduction in cell growth incubated for 72 hrs by MTT assay; type: functional, cell-based; settings: A549, 72 h
OE33 = assay: Antiproliferative activity against human OE33 cells assessed as reduction in cell growth incubated for 72 hrs by MTT assay; type: functional, cell-based; settings: OE33, 72 h
Jurkat = assay: Antiproliferative activity against human Jurkat cells assessed as reduction in cell growth incubated for 72 hrs by MTT assay; type: functional, cell-based
NCI-H295R = assay: Antiproliferative activity against human NCI-H295R cells assessed as reduction in cell viability incubated for 72 hrs by MTT assay; type: functional, cell-based
HT-29 = assay: Antiproliferative activity against human HT-29 cells assessed as reduction in cell growth incubated for 72 hrs by MTT assay; type: functional, cell-based; settings: HT-29, 72 h
MDA-MB-468 = assay: Antiproliferative activity against human MDA-MB-468 cells assessed as reduction in cell growth incubated for 72 hrs by MTT assay; type: functional, cell-based; settings: MDA-MB-468, 72 h
A-375 = assay: Antiproliferative activity against human A-375 cells assessed as reduction in cell growth incubated for 72 hrs by MTT assay; type: functional, cell-based; settings: A-375, 72 h
A549 [13] = assay: Antiproliferative activity against human A549 cells assessed as reduction in cell growth incubated for 48 hrs by MTT assay; type: functional, cell-based; settings: A549, 48 h
HeLa = assay: Antiproliferative activity against human HeLa cells assessed as reduction in cell viability incubated for 72 hrs by MTT assay; type: functional, cell-based
PT-45 = assay: Antiproliferative activity against human PT-45 cells assessed as reduction in cell growth incubated for 72 hrs by MTT assay; type: functional, cell-based; settings: PT-45, 72 h
[14] = target: Dual specificity mitogen-activated protein kinase kinase 1 (Homo sapiens, UniProt Q02750); assay: Inhibition of RAF1- induced activation of MEK (unknown origin) signalling pathway assessed as reduction in MEK1 phosphorylation
[15] = Inhibition of human LOX
Homo sapiens = species: Homo sapiens; assay: Inhibition of human Lipoxygenase at 100 uM relative to control
Staphylococcus aureus = assay: Antibacterial activity against Methicillin-resistant Staphylococcus aureus assessed as reduction in bacterial growth; type: functional
[16] = target: Quinolone resistance protein NorA (Staphylococcus aureus) (UniProt P0A0J7); assay: Inhibition of NorA efflux pump in Staphylococcus aureus SA1199B overexpressing NorA gene assessed as inhibition of EtBr efflux at 50 uM incubated for 20 mins by fluorometric assay

Epidermal growth factor receptor, sequence (P00533 whole entry): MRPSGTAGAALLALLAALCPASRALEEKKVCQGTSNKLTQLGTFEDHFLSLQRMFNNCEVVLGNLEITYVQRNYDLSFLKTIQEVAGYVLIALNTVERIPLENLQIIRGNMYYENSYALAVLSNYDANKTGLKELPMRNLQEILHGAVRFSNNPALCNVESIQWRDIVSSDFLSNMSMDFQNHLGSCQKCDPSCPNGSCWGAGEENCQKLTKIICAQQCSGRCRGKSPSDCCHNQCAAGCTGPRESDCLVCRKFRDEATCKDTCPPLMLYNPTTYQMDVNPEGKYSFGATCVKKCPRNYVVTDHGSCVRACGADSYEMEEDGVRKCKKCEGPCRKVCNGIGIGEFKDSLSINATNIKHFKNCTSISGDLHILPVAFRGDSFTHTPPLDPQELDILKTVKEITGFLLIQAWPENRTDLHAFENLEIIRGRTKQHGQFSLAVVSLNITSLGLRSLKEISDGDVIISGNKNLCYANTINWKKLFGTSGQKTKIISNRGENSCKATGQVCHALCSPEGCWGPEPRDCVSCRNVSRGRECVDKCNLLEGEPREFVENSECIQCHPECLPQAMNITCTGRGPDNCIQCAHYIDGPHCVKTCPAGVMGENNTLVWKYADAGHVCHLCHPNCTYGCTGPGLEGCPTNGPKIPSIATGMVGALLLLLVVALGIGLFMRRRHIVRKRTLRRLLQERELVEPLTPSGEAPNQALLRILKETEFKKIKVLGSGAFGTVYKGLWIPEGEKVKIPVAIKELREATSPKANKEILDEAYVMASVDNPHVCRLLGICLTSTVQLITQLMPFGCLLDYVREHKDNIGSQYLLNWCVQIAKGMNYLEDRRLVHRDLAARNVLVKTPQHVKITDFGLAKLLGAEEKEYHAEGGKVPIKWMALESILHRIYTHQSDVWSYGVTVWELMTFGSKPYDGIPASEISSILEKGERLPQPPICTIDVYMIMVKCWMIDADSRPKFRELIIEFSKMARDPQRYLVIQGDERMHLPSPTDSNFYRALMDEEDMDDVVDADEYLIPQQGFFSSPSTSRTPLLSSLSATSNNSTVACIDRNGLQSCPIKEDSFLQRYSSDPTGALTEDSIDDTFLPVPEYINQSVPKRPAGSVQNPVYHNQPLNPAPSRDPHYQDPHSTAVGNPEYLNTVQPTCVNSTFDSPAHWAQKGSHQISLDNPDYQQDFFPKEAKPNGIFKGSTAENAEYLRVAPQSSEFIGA
Cytochrome P450 1A2, sequence (P05177 whole entry): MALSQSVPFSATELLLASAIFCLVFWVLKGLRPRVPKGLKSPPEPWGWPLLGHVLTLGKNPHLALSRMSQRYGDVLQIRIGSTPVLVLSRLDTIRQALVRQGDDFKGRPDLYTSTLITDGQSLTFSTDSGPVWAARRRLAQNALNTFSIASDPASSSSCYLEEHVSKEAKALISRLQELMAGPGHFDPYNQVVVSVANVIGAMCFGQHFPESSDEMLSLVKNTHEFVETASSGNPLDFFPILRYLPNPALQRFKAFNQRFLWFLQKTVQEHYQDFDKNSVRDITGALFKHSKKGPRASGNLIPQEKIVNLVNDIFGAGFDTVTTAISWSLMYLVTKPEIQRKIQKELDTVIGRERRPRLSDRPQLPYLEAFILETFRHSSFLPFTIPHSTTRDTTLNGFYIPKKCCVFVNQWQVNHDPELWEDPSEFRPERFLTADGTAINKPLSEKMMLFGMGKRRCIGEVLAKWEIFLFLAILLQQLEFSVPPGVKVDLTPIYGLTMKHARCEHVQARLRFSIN
Dual specificity mitogen-activated protein kinase kinase 1, sequence (Q02750 whole entry): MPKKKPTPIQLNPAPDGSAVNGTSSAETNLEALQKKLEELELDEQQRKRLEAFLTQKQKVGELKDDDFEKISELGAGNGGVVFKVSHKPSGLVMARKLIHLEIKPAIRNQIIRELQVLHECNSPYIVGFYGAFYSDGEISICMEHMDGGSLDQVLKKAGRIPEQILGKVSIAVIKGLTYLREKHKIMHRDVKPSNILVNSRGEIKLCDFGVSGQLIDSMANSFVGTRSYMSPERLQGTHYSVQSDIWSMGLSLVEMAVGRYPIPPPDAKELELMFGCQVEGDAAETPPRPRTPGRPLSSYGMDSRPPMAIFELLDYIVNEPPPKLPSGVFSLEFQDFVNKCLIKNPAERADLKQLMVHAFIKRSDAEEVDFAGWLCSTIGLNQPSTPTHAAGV

Question: For `O=C1C[C@H](c2cccc(Br)c2)Nc2ccccc21`, which Activity (DU-145 [1]) is on record?
Answer: Its Activity is 60%.

Question: And the IC50 (DU-145 [2])?
Answer: Its IC50 is 0.4 µM.

Question: With `COc1cc2c(cc1CC=C(C)C)C(=O)NC(c1ccc(O)cc1)N2` (configuration not stated) as the compound, how does the IC50 (MV4-11) read?
Answer: The IC50 was 0.5 µM.

Question: What about the IC50 (HL-60) of the same compound?
Answer: Its IC50 is 0.25 µM.

Question: For `COc1ccc(-c2oc3cc(O)c(OC)c(O)c3c(=O)c2OC)cc1O` [CENTAUREIDIN], which inhibition (Tubulin (Homo sapiens)) is on record?
Answer: Its inhibition is 35%.

Question: And the IC50 (MCF7 [3])?
Answer: Its IC50 is 0.24 µM.

Question: Which results are given for `O=c1c(O)c(-c2ccc(O)c(O)c2)oc2cc(O)cc(O)c12` [QUERCETIN]?
Answer: IC50 [4]: 8.7 µM; EC50 (Influenza A virus): 0.56 µM

Question: Which IC50 (HepG2 [5]) does the source give for `COc1cccc(-c2c[nH]c3c(F)cc(F)cc3c2=O)c1` here?
Answer: Its IC50 is 0.05 µM.

Question: And the IC50 (KB)?
Answer: Its IC50 is 0.06 µM.

Question: For `CC(=O)Oc1cc2sc(-c3ccccc3)cc(=O)c2cc1OC(C)=O`, which EC50 [6] is on record?
Answer: The EC50 was 0.65 mg/L (≈ 1.83 µM).

Question: What does the source list for `COc1ccc(-c2oc3c(OC)c(OC)c(OC)c(O)c3c(=O)c2OC)cc1O`?
Answer: inhibition (Tubulin (Homo sapiens)): 59%; IC50 (Tubulin): 0.8 µM; IC50 (MCF7 [3]): 0.13 µM

Question: For `COc1cc(O)c2c(O)c(-c3cccc(Cl)c3)cnc2c1`, which IC50 [7] is on record?
Answer: Its IC50 is 0.04 µM.

Question: With `COc1ccccc1-c1cc(=O)c2ccccc2[nH]1` as the compound, how does the IC50 [4] read?
Answer: Its IC50 is 1.3 µM.

Question: And the EC50 (Influenza A virus)?
Answer: Its EC50 is 4.96 µM.

Question: For `COc1cc(O)c2c(O)cc(-c3cccc(F)c3)nc2c1`, which IC50 [8] is on record?
Answer: Its IC50 is 14.5 µM.

Question: Which results are given for `COc1cccc(-c2cc(=O)c3ccccc3o2)c1N`?
Answer: IC50 (WiDr): 10 µM; IC50 [9]: 2.95 µM; IC50 (HT-1080): 8.6 µM

Question: Which IC50 (Cytochrome P450 1A2) does the source give for `COc1ccc(-c2cc(=O)c3cc(OC)c4cccc(OC)c4c3[nH]2)cc1` here?
Answer: The IC50 was 0.0041 µM.

Question: Which inhibition (Tubulin (Homo sapiens)) does the source give for `COc1ccc(-c2cc(=O)c3cc(OC)c(OC)c(OC)c3o2)cc1` here?
Answer: The inhibition was 43%.

Question: What about the IC50 (Tubulin) of the same compound?
Answer: Its IC50 is 3 µM.

Question: What about the IC50 (MCF7 [3]) of the same compound?
Answer: Its IC50 is 1.7 µM.

Question: For `COc1cccc(-c2c[nH]c3c(F)cccc3c2=O)c1`, which IC50 (HepG2 [5]) is on record?
Answer: Its IC50 is 0.01 µM.

Question: And the IC50 (KB)?
Answer: The IC50 was 0.03 µM.

Question: Which IC50 (ARO) does the source give for `CCOC(=O)CCn1ccc2c3c(=O)cc(-c4ccccc4)[nH]c3ccc21` here?
Answer: The IC50 was 0.005 µM.

Question: And the IC50 (OE19)?
Answer: The IC50 was 0.005 µM.

Question: And the IC50 (HepG2 [10])?
Answer: Its IC50 is 0.005 µM.

Question: What about the IC50 (MCF7 [11]) of the same compound?
Answer: The IC50 was 0.005 µM.

Question: What about the IC50 (OVCAR-3) of the same compound?
Answer: Its IC50 is 0.005 µM.

Question: And the IC50 (A549 [12])?
Answer: The IC50 was 0.005 µM.

Question: What about the inhibition (Tubulin (Homo sapiens)) of the same compound?
Answer: Its inhibition is 75%.

Question: What about the IC50 (OE33) of the same compound?
Answer: Its IC50 is 0.005 µM.

Question: What about the IC50 (Tubulin) of the same compound?
Answer: The IC50 was 0.75 µM.

Question: What about the IC50 (Jurkat) of the same compound?
Answer: Its IC50 is 0.005 µM.

Question: What about the IC50 (NCI-H295R) of the same compound?
Answer: The IC50 was 0.005 µM.

Question: What about the IC50 (HT-29) of the same compound?
Answer: The IC50 was 0.005 µM.

Question: And the IC50 (MDA-MB-468)?
Answer: Its IC50 is 0.005 µM.

Question: And the IC50 (A-375)?
Answer: The IC50 was 0.005 µM.

Question: And the IC50 (A549 [13])?
Answer: Its IC50 is 0.005 µM.

Question: What about the IC50 (HeLa) of the same compound?
Answer: The IC50 was 0.005 µM.

Question: And the IC50 (PT-45)?
Answer: The IC50 was 0.005 µM.

Question: What does the source list for `COc1cccc(-c2cc(=O)c3ccccc3s2)c1N`?
Answer: IC50 (WiDr): 30.5 µM; IC50 [14]: 4.35 µM; IC50 [9]: 13.8 µM; IC50 (HT-1080): 29.5 µM

Question: For `Oc1ccc(-c2ccc3ccccc3n2)c2ccccc12`, which IC50 [15] is on record?
Answer: The IC50 was 6.5 µM.

Question: And the inhibition (Homo sapiens)?
Answer: Its inhibition is greater than 80%.

Question: What does the source list for `CCCOc1ccc(-c2cc(=O)c3ccccc3o2)cc1`?
Answer: MIC (Staphylococcus aureus): 0.4 mg/L (≈ 1.43 µM); inhibition [16]: 33.9%

Question: For `Oc1ccc2nc(-c3ccccc3O)ccc2c1`, which IC50 [15] is on record?
Answer: The IC50 was 6.5 µM.

Question: And the inhibition (Homo sapiens)?
Answer: Its inhibition is greater than 80%.

Question: With `O=c1cc(-c2ccccc2)[nH]c2ccc3c(ccn3CC3CC3)c12` as the compound, how does the IC50 (ARO) read?
Answer: Its IC50 is 0.02 µM.

Question: What about the IC50 (OE19) of the same compound?
Answer: Its IC50 is 0.02 µM.

Question: What about the IC50 (MCF7 [11]) of the same compound?
Answer: Its IC50 is 0.02 µM.

Question: What about the IC50 (OVCAR-3) of the same compound?
Answer: Its IC50 is 0.02 µM.

Question: And the inhibition (Tubulin (Homo sapiens))?
Answer: Its inhibition is 83%.

Question: And the IC50 (Tubulin)?
Answer: The IC50 was 0.9 µM.

Question: And the IC50 (Jurkat)?
Answer: The IC50 was 0.02 µM.

Question: And the IC50 (NCI-H295R)?
Answer: The IC50 was 0.02 µM.

Question: What about the IC50 (HT-29) of the same compound?
Answer: The IC50 was 0.02 µM.

Question: And the IC50 (MDA-MB-468)?
Answer: The IC50 was 0.02 µM.

Question: And the IC50 (A-375)?
Answer: Its IC50 is 0.02 µM.

Question: With `CCOC(=O)C1=C[C@@H](OC(CC)CC)[C@H](NC(C)=O)[C@@H](N)C1` [OSELTAMIVIR] as the compound, how does the IC50 [4] read?
Answer: Its IC50 is 1.9 µM.

Question: And the EC50 (Influenza A virus)?
Answer: Its EC50 is 12.7 µM.
